According to PMC7142633, “Impact of B-Ring Substitution and Acylation with Hydroxy Cinnamic Acids on the Inhibition of Porcine α-Amylase by Anthocyanin-3-Glycosides” (Foods, 2020):
Where two headings read alike, the source gives them in different places. Marks after values point to notes of the source that are not given here.

How the values were obtained:
[1] = biological target: T1, α-amylase from porcine pancreas (Sus scrofa, UniProt P00690); assay: α-amylase enzyme activity assay, GalG2CNP conversion, UV/Vis detection of CNP at 405 nm; type: biochemical; conditions: for IC50: read-out: IC50 (Cheng−Prussoff, Equation (9)); for Kmapp / vmaxapp: Michaelis Menten fit
T1 construct: A saline suspension of α-amylase from porcine pancreas; purchased Sigma Aldrich (Steinheim, Germany) Lot #SLBN9170V (catalogue number not given); host or cells: porcine pancreas (tissue-derived)
T1 sequence (P00690 16-511): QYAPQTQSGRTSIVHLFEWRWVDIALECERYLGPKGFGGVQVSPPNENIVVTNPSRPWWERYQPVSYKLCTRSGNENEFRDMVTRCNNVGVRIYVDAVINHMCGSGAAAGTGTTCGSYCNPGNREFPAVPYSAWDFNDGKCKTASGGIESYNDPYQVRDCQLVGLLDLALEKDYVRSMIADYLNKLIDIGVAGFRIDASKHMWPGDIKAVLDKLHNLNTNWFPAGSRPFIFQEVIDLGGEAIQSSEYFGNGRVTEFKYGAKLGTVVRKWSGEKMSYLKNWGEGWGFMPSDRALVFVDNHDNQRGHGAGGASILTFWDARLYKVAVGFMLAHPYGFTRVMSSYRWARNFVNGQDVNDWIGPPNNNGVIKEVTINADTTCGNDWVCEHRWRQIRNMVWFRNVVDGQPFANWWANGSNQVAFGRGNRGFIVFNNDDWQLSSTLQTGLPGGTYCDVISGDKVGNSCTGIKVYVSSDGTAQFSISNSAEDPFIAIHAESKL
Procedure: The enzyme activity assay, […], was established by Homoki and co-workers and already used by the authors to evaluate the inhibitory strength of different phenolic structures. To enable the evaluation of the result obtained in the present study compared to the non-anthocyanin phenolics investigated previously, the assay conditions were identical. In short, to 12 different GalG2CNP concentrations ([S] = 0−2000 µM) in MES^+ buffer, inhibitor [I] and 50 µL enzyme solution (c = 1.51 units/~100 pM, on the basis of supplier information) were mixed in a microtiter plate (Greiner BioOne, Frickenhausen, Germany; transparent, F-bottom). For blanks, the enzyme solution was substituted with MES^+ buffer. The final volume per well was 250 µL. To quantify the reaction product, a linear calibration with eight different CNP concentrations in the range of 0−35 µM was performed for each plate. Dilutions of the anthocyanin stock solutions (0.1% HCl) were equilibrated at pH 6.1 for one hour. Final inhibitor concentrations were limited due to its strong absorption at 405 nm to 12.5, 25, and 50 µM. For each anthocyanin structure, the assay was conducted on two to three different days with freshly prepared stocks of substrate, enzyme, and inhibitor.
In addition to the Michaelis Menten constant (Km) and the maximal conversion rate (vmax) values (Table S1), inhibition constants (Kic, Kiu) were calculated by fitting the data by two approaches: (i) According to the mixed inhibition equation (Equation (4)) or competitive inhibition equation (Equation (5)), applying an optimal global fit containing data from all inhibitor concentrations including the control ([I] = 0 µM); and (ii) by an independent fit according to the Michaelis Menten equation (Equation (6)), providing the apparent values Km^app and Vmax^app (Table S2) for each inhibitor concentration, which were then used to calculate the inhibition constants (Equations (7) and (8)). (4) v0= vmax/Km/[S] · (1+[I]/Kic)+(1+[I]/Kiu), (5) v0=vmax/Km/[S] · ( 1+[I]/Kic)+1, (6) v0=vmax · [S]/Km+[S], (7) Kic=vmax^app/Km^app · [I]/vmax/Km−vmax^app/Km^app, (8) Kiu=vmax^app · [I]/vmax− vmax^app.
The IC50 values of the different anthocyanins were derived from the inhibition constants for different substrate concentrations by the Cheng−Prusoff equation (Equation (9)). (9) IC50=(Km+[S])/Km/Kic+[S]/Kiu.
• KM: Michaelis Menten constant (µM) • vmax: Maximal conversion rate of the uninhibited reaction (µM/min) • v0: Observed conversion rate at given substrate and inhibitor concentration (µM/min) • [S]: Substrate concentration • [I]: Inhibitor concentration • Kic: Inhibitor constant, reflecting the competitive inhibition in the equation (µM) • Kiu: Inhibitor constant, reflecting the uncompetitive inhibition in the equation (µM) • vmax^app: Calculated maximal conversion rate, when the Michaelis Menten equation is used on an inhibited curve (µM/min) • Km^app: Calculated Michaelis Menten constant, when the Michaelis Menten equation is used on an inhibited curve (µM) • IC50: Half maximal inhibitory concentration (inhibitor concentration needed to achieve 50% inhibition; it is dependent on the substrate concentration) (µM)
For data analyses and calculations, Origin 2018b (OriginLab, software extension Enzyme Kinetics) was used. The Levenberg−Marquardt algorithm procedure was chosen for iteration. All assays were performed in two independent replicates at different dates. Values are expressed in arithmetic means ± average deviation (AD). The statistical significance and differences between groups were analyzed by one-way analysis of variance (ANOVA), followed by Tukey’s test. Differences were considered significant when p < 0.05. Data were processed using Microsoft Excel® (2010).

[2] = biological target: human salivary α-amylase; design: method as in PMID 26471548; conditions: cited from earlier work
[3] = biological target: porcine pancreatic α-amylase; design: method as in doi:10.1016/j.jff.2015.11.042; conditions: cited from earlier work
[4] = aqueous solution; cited from earlier work
[5] = biological target: T1, α-amylase from porcine pancreas; assay: Isothermal titration calorimetry, single injection, GalG2CNP conversion; type: biochemical; conditions: 100 µM inhibitor, 0.95 mM substrate, 37 °C
Procedure: To evaluate the inhibitory strength of 100 µM anthocyanin-3-glucosides and black carrot anthocyanins, GalG2CNP conversion to CNP was monitored by the released heat. According to the previous study, ITC measurements were carried out in a single injection experiment set-up on a MICROCALTM PEAQ-ITC calorimeter (S/N MAL1188053, Malvern Panalytical Almelo, Netherlands). Following an equilibration time of 10 min, 1 µL α-amylase (1 µM in 50 mM MES^+ buffer) was added to 0.95 mM of the substrate with or without 100 µM of the phenolic inhibitor in the cell (Vcell = 0.207 mL). The temperature was maintained at 37 °C and the sample was stirred at 750 rpm throughout. The feedback/gain mode was set to high. The resulting heat profile was transformed and the conversion rate was plotted against the substrate concentration [S] by an origin routine template provided by Malvern® for Origin version 7.

[6] = (i) Kic and Kiu by global fit, [S] 10 µM
[7] = (i) Kic and Kiu by global fit, [S] 100 µM
[8] = (i) Kic and Kiu by global fit, [S] 10^3 µM
[9] = (i) Kic and Kiu by global fit, [S] 10^6 µM
[10] = (i) global fit, mixed inhibition Equation (4), read-out: Kic
[11] = (i) global fit, mixed inhibition Equation (4), read-out: Kiu
[12] = (ii) Kic and Kiu by independent fit, [S] 10 µM
[13] = (ii) Kic and Kiu by independent fit, [S] 100 µM
[14] = (ii) Kic and Kiu by independent fit, [S] 10^3 µM
[15] = (ii) Kic and Kiu by independent fit, [S] 10^6 µM
[16] = (ii) independent Michaelis Menten fit (Equation (6)), calculation by Equation (7), read-out: Kic
[17] = (ii) independent Michaelis Menten fit (Equation (6)), calculation by Equation (8), read-out: Kiu
[18] = (ii) independent fit, Equations (7) and (8)
[19] = from apparent values, inhibitor c 25 µM, read-out: Kic
[20] = from apparent values, inhibitor c 25 µM, read-out: Kiu
[21] = from apparent values, inhibitor c 50 µM, read-out: Kic
[22] = from apparent values, inhibitor c 50 µM, read-out: Kiu
[23] = from apparent values, inhibitor c 12,5 µM, read-out: Kic
[24] = from apparent values, inhibitor c 12,5 µM, read-out: Kiu

Row | IC50 [1, 6] [µM] | IC50 [1, 7] [µM] | IC50 [1, 8] [µM] | Kic/Kiu ([1]; (i) global fit, Equation (4)) | Ki [1, 10] [µM] | Ki [1, 11] [µM] | IC50 [1, 12] [µM] | IC50 [1, 13] [µM] | IC50 [1, 14] [µM] | IC50 [1, 15] [µM] | Ki [1, 16] [µM] | Ki [1, 17] [µM] | Kic/Kiu [1, 18] | Kmapp ([1]; inhibitor c 25 µM) [µM] | vmaxapp ([1]; inhibitor c 25 µM) | Kmapp ([1]; inhibitor c 50 µM) [µM] | vmaxapp ([1]; inhibitor c 50 µM) | Kmapp ([1]; inhibitor c 12,5 µM) [µM] | vmaxapp ([1]; inhibitor c 12,5 µM) | Ki [1, 19] [µM] | SMILES | further results
1 | 83 ± 11 | 97 ± 15 | 147 ± 36 | 0.45 ± 0.08 ***^a | 81 ± 10 | 184 ± 56 | 137 | 153 | 201 | 228 | 134 | 228 | 0.56 *^a | 285 | 0,74 ± 0,26 µM/min | 300 | 0,69 ± 0,21 µM/min | 244 | 0,79 ± 0,23 µM/min | 64 | OC[C@H]1O[C@@H](Oc2cc3c(O)cc(O)cc3[o+]c2-c2ccc(O)c(O)c2)[C@H](O)[C@@H](O)[C@@H]1O [Cyd-glc, cyanidin-3-glucoside] | IC50 [1, 9]: 184 ± 56 µM; Ki [1, 20]: 141 µM; Ki [1, 21]: 103 µM; Ki [1, 22]: 250 µM; Ki [1, 23]: 236 µM; Ki [1, 24]: 146 µM; Ki ([1]; mean over inhibitor c 12,5, 25, 50 µM (Supplementary 2), read-out: Kiu mean ± SD): 179 ± 62 µM; IC50 [2]: 180 ± 20 µM; inhibition type [2]: competitive inhibition type; IC50 [3]: 24 ± 3 µM; inhibition type [3]: competitive inhibition type; pKH [4]: 3.02 ± 0.06
2 | 64 ± 25 | 77 ± 25 | 134 ± 1 | 0.34 ± 0.24 ^a | 62 ± 25 | 204 ± 68 | 65 ± 20 | 83 ± 24 | 167 ± 20 | 270 ± 32 | 63 ± 19 | 270 ± 33 | 0.26 ± 0.13 ^a | 273 ± 52 | 0,79 ± 0,09 µM/min | 335 ± 129 | 0,69 ± 0,03 µM/min | 247 ± 33 | 0,84 ± 0,10 µM/min | 63 ± 17 | OC[C@H]1O[C@@H](Oc2cc3c(O)cc(O)cc3[o+]c2-c2cc(O)c(O)c(O)c2)[C@H](O)[C@@H](O)[C@@H]1O [Dpd-glc, delphinidin-3-glucoside] | Ki [1, 20]: 233 ± 25 µM; Ki [1, 21]: 60 ± 27 µM; Ki [1, 22]: 212 ± 87 µM; Ki [1, 23]: 66 ± 14 µM; Ki [1, 24]: 364 ± 13 µM; Ki ([1]; mean over inhibitor c 12,5, 25, 50 µM (Supplementary 2), read-out: Kic mean ± SD): 63 ± 3 µM; inhibitory strength by ITC (thermogram, Michaelis Menten plot) [5]: Mlv-3-glc > Cyd-3-glc > Dpd-3-glc~Peo-3-glc; pKH [4]: 2.36 ± 0.05
3 | 58 ± 15 | 71 ± 20 | 117 ± 41 | 0.39 ± 0.05 ^a | 57 ± 15 | 151 ± 59 | 71 ± 2 | 84 ± 7 | 127 ± 31 | 158 ± 53 | 69 ± 1 | 158 ± 53 | 0.46 ± 0.13 ^a | 258 ± 13 | 0,58 ± 0,22 µM/min | 325 ± 42 | 0,53 ± 0,23 µM/min | 235 ± 2 | 0,65 ± 0,23 µM/min | 62 ± 7 | OC[C@H]1O[C@@H](Oc2cc3c(O)cc(O)cc3[o+]c2-c2ccc(O)cc2)[C@H](O)[C@@H](O)[C@@H]1O [Plg-glc, pelargonidin-3-glucoside] | IC50 [1, 9]: 151 ± 59 µM; Ki [1, 20]: 126 ± 30 µM; Ki [1, 21]: 55 ± 19 µM; Ki [1, 22]: 163 ± 64 µM; Ki [1, 23]: 91 ± 22 µM; Ki [1, 24]: 187 ± 64 µM; pKH [4]: 2.98 ± 0.06
